Measurements published in patent publication US8883745B2, “C—glycolipids with enhanced Th-1 profile” (New York University, priority 2006, dated 2014).

What was measured:
Assay type in all cases: in vivo
IFN-γ [1] = assay: IFN-γ levels in sera upon i.v. glycolipid administration to BALB/c mice (ELISA); parameters: IFN-γ levels, test 1 / IFN-γ levels, test 2 / IFN-γ levels, average / IFN-γ levels, Total: unit not given here; settings: BALB/c
Method: (§1) Five- to six-week-old female C57BL/6 mice and BALB/c mice were purchased from Taconic. Each glycolipid was stored at 1 mg/ml in 100% DMSO. Mice were injected intravenously with 1 μg of each glyocolipid diluted in 200 μL sterile phosphate buffered saline (PBS). At indicated time points, sera were collected from each animal, and concentrations of IFN-γ, IL-4, and IL-12 in the sera were evaluated by enzyme-linked immunosorbent assay (ELISA). Serum concentrations of IFN-γ, IL-4, and IL-12 were evaluated using an ELISA kit (eBioscience, San Diego, Calif.). Briefly, 96 well flat-bottom ELISA plates (NUNC) were coated with capture antibody according to the manufacture's recommendation and incubated overnight at 4° C. The plates were washed with PBS+0.05% Tween 20 (PBS-T), then incubated with manufacturer provided blocking solution for 1 hr at room temperature to block non-specific binding sites. After washing with PBS-T, sera diluted 1:10 was added to the wells and incubated for 2 hrs at room temperature. Plates were then incubated at room temperature for 1 hr with biotintylated detection antibody, washed, incubated with avidin conjugated to horse radish peroxidase (HRP) for 30 min at room temperature, washed, and finally incubated with tetramethylbenzidine substrate solution in the dark for 10 minutes at room temperature. The antibodies, avidin-HRP, and substrate solution were all diluted according to the manufacture's recommendation. Reactions were stopped with 2.0N sulfuric acid and the cytokine concentration in each well was determined by comparing the absorbance at 450 nm in each well to known standards. The levels of Th1- and Th2-type cytokines were determined in two different genetic backgrounds, i.e., in C57BL/6 mice and BALB/c mice. The following compounds were administered: A=compound (A-1 trans-conformer), B=compound (A-2), C=compound (A-3), D=compound (A-4), E=compound (A-5), Z=control (PBS alone), CRONY=α-C-GalCer, KRN=α-GalCer, GCK109 (A-1 trans-conformer), GCK151 (A-1 cis-conformer), GCK152 (A-7). The levels of cytokines were measured at 0, 2, 6, 12, 24, 48, and 72 hours after the compound administration. The levels of Th1-type cytokines IFN-γ and IL-12 are summarized in FIGS. 2A-C and 3A-C, respectively. Table 7 provides IFN-γ/IL-4 and IL-12/IL-4 ratios for various compounds, which can be used as indicators of their ability to selectively stimulate Th1-type immune responses.

IFN-γ [2] = assay: IFN-γ levels in sera upon i.v. glycolipid administration to C57BL/6 mice (ELISA); parameters: IFN-γ levels, test 1 / IFN-γ levels, test 2 / IFN-γ levels, average / IFN-γ levels, Total / IFN-γ (B6): unit not given here
Method: as §1

IL-12 = IL-12 levels in sera upon i.v. glycolipid administration to BALB/c mice (ELISA); parameters: IL-12 levels, test 1 / IL-12 levels, test 2 / IL-12 levels, average / IL-12 levels, Total: unit not given here
Method: as §1

IL-4 = IL-4 levels in sera upon i.v. glycolipid administration to BALB/c mice (ELISA); parameters: unit not given here
Method: as §1

[3] = ratio calculated from Tables 1-6

CCCCCCCCCCCCCCCCC/C=C/CCCCCCCCC(=O)N[C@@H](CC[C@H]1O[C@H](CO)[C@H](O)[C@H](O)[C@H]1O)[C@H](O)[C@H](O)CCCCCCCCCCCCCC [A-3]
IFN-γ/IL-4 (BALB/c) (IFN-γ [1]; [3]): 40
IFN-γ levels, average (IFN-γ [1]; serum, hour 0): 27
IFN-γ levels, test 1 (IFN-γ [1]; serum, hour 0): 27
IFN-γ levels, test 2 (IFN-γ [1]; serum, hour 0): 27
IFN-γ levels, average (IFN-γ [1]; serum, hour 2): 163
IFN-γ levels, test 1 (IFN-γ [1]; serum, hour 2): 137
IFN-γ levels, test 2 (IFN-γ [1]; serum, hour 2): 189
IFN-γ levels, average (IFN-γ [1]; serum, hour 6): 1172
IFN-γ levels, test 1 (IFN-γ [1]; serum, hour 6): 1072
IFN-γ levels, test 2 (IFN-γ [1]; serum, hour 6): 1272
IFN-γ levels, average (IFN-γ [1]; serum, hour 12): 3938.5
IFN-γ levels, test 1 (IFN-γ [1]; serum, hour 12): 3891
IFN-γ levels, test 2 (IFN-γ [1]; serum, hour 12): 3986
IFN-γ levels, average (IFN-γ [1]; serum, hour 24): 15700
IFN-γ levels, test 1 (IFN-γ [1]; serum, hour 24): 14100
IFN-γ levels, test 2 (IFN-γ [1]; serum, hour 24): 17300
IFN-γ levels, average (IFN-γ [1]; serum, hour 48): 224.5
IFN-γ levels, test 1 (IFN-γ [1]; serum, hour 48): 231
IFN-γ levels, test 2 (IFN-γ [1]; serum, hour 48): 218
IFN-γ levels, average (IFN-γ [1]; serum, hour 72): 61
IFN-γ levels, test 1 (IFN-γ [1]; serum, hour 72): 62
IFN-γ levels, test 2 (IFN-γ [1]; serum, hour 72): 60
IFN-γ levels, Total (IFN-γ [1]; serum, total over hours 0-72): 21287
IFN-γ/IL-4 (B6) (IFN-γ [2]; C57BL/6, ratio calculated from Tables 1-6): 14
IFN-γ levels, average (IFN-γ [2]; C57BL/6, serum, hour 0): 31
IFN-γ levels, test 1 (IFN-γ [2]; C57BL/6, serum, hour 0): 31
IFN-γ levels, test 2 (IFN-γ [2]; C57BL/6, serum, hour 0): 31
IFN-γ levels, average (IFN-γ [2]; C57BL/6, serum, hour 2): 213
IFN-γ levels, test 1 (IFN-γ [2]; C57BL/6, serum, hour 2): 185
IFN-γ levels, test 2 (IFN-γ [2]; C57BL/6, serum, hour 2): 241
IFN-γ levels, average (IFN-γ [2]; C57BL/6, serum, hour 6): 606
IFN-γ levels, test 1 (IFN-γ [2]; C57BL/6, serum, hour 6): 542
IFN-γ levels, test 2 (IFN-γ [2]; C57BL/6, serum, hour 6): 670
IFN-γ levels, average (IFN-γ [2]; C57BL/6, serum, hour 12): 2440.5
IFN-γ levels, test 1 (IFN-γ [2]; C57BL/6, serum, hour 12): 2665
IFN-γ levels, test 2 (IFN-γ [2]; C57BL/6, serum, hour 12): 2216
IFN-γ levels, average (IFN-γ [2]; C57BL/6, serum, hour 24): 9036
IFN-γ levels, test 1 (IFN-γ [2]; C57BL/6, serum, hour 24): 9837
IFN-γ levels, test 2 (IFN-γ [2]; C57BL/6, serum, hour 24): 8235
IFN-γ levels, average (IFN-γ [2]; C57BL/6, serum, hour 48): 344
IFN-γ levels, test 1 (IFN-γ [2]; C57BL/6, serum, hour 48): 382
IFN-γ levels, test 2 (IFN-γ [2]; C57BL/6, serum, hour 48): 306
IFN-γ levels, average (IFN-γ [2]; C57BL/6, serum, hour 72): 79.5
IFN-γ levels, test 1 (IFN-γ [2]; C57BL/6, serum, hour 72): 75
IFN-γ levels, test 2 (IFN-γ [2]; C57BL/6, serum, hour 72): 84
IFN-γ levels, Total (IFN-γ [2]; C57BL/6, serum, total over hours 0-72): 12751
IL-12/IL-4 (BALB/c) (IL-12; [3]): 9
IL-12 levels, average (IL-12; serum, hour 0): 5
IL-12 levels, test 1 (IL-12; serum, hour 0): 5
IL-12 levels, test 2 (IL-12; serum, hour 0): 5
IL-12 levels, average (IL-12; serum, hour 2): 240
IL-12 levels, test 1 (IL-12; serum, hour 2): 362
IL-12 levels, test 2 (IL-12; serum, hour 2): 118
IL-12 levels, average (IL-12; serum, hour 6): 1384.5
IL-12 levels, test 1 (IL-12; serum, hour 6): 1356
IL-12 levels, test 2 (IL-12; serum, hour 6): 1413
IL-12 levels, average (IL-12; serum, hour 12): 3010.5
IL-12 levels, test 1 (IL-12; serum, hour 12): 3256
IL-12 levels, test 2 (IL-12; serum, hour 12): 2765
IL-12 levels, average (IL-12; serum, hour 24): 161
IL-12 levels, test 1 (IL-12; serum, hour 24): 134
IL-12 levels, test 2 (IL-12; serum, hour 24): 188
IL-12 levels, average (IL-12; serum, hour 48): 0
IL-12 levels, test 1 (IL-12; serum, hour 48): 0
IL-12 levels, test 2 (IL-12; serum, hour 48): 0
IL-12 levels, average (IL-12; serum, hour 72): 75.5
IL-12 levels, test 1 (IL-12; serum, hour 72): 0
IL-12 levels, test 2 (IL-12; serum, hour 72): 151
IL-12 levels, Total (IL-12; serum, total over hours 0-72): 4878
IL-4 level, average (IL-4; hour 0): 27
IL-4 level, test 1 (IL-4; hour 0): 27
IL-4 level, test 2 (IL-4; hour 0): 27
IL-4 level, average (IL-4; hour 2): 307.5
IL-4 level, test 1 (IL-4; hour 2): 273
IL-4 level, test 2 (IL-4; hour 2): 342
IL-4 level, average (IL-4; hour 6): 54.5
IL-4 level, test 1 (IL-4; hour 6): 56
IL-4 level, test 2 (IL-4; hour 6): 53
IL-4 level, average (IL-4; hour 12): 48
IL-4 level, test 1 (IL-4; hour 12): 44
IL-4 level, test 2 (IL-4; hour 12): 52
IL-4 level, average (IL-4; hour 24): 44
IL-4 level, test 1 (IL-4; hour 24): 44
IL-4 level, test 2 (IL-4; hour 24): 44
IL-4 level, average (IL-4; hour 48): 43
IL-4 level, test 1 (IL-4; hour 48): 48
IL-4 level, test 2 (IL-4; hour 48): 38
IL-4 level, average (IL-4; hour 72): 12.23
IL-4 level, test 1 (IL-4; hour 72): 12.23
IL-4 level, test 2 (IL-4; hour 72): 12.23
IL-4 level, Total (IL-4; total over hours 0-72): 538
